Assay: rat acute oral toxicity
Settings: in vivo

Row | SMILES | LD50
1 | CNC(=O)Oc1ccccc1OC(C)C | 41 mg/kg
2 | NNC(N)=S | 9.16 mg/kg
3 | O=C1NC(=O)C2C3C(C(O)(c4ccccc4)c4ccccn4)=CC(C3=C(c3ccccc3)c3ccccn3)C12 (configuration not stated) | 3.8 mg/kg
4 | O=[N+]([O-])c1cccc(Cl)c1Cl | 381 mg/kg
5 | CCCCCCCCCCCCN(C)C | 740 mg/kg
6 | COCC(C)OC(C)=O (configuration not stated) | 5160 mg/kg
7 | CCCCCCCCCCCCCCCC[N+](C)(C)C | 450 mg/kg
8 | C1CC2OC2CC1C1CO1 (configuration not stated) | 2130 mg/kg
9 | COP(=O)(OC)C(O)C(Cl)(Cl)Cl (configuration not stated) | 154 mg/kg
10 | O=C(O)COc1nc(Cl)c(Cl)cc1Cl | 630 mg/kg
11 | CCN(CC)C(=O)N1CCN(C)CC1 | 1380 mg/kg
12 | CN(C)CCC=C1c2ccccc2CCc2ccccc21 | 280 mg/kg
13 | CCC(CC)CN | 310 mg/kg
14 | O=C1C2CC=CCC2C(=O)N1SC(Cl)(Cl)Cl (configuration not stated) | 9000 mg/kg
15 | O=C(O)c1ccc(C(=O)O)cc1 | 1960 mg/kg
16 | CCOc1ccc(NC(N)=O)cc1 | 1900 mg/kg
17 | CCCSC(=O)N(CCC)CCC | 1200 mg/kg
18 | NC1CCC(CC2CCC(N)CC2)CC1 (configuration not stated) | 350 mg/kg
19 | CCNc1nc(Cl)nc(NC(C)(C)C)n1 | 1500 mg/kg
20 | C=CCCC | 4600 mg/kg
21 | CCSC(=O)N(CC)C1CCCCC1 | 1680 mg/kg
22 | CCOP(=S)(OCC)SCCSCC | 1.9 mg/kg

Row | SMILES | LD50
23 | CO[Si](CCCNCCN)(OC)OC | 1900 mg/kg
24 | CC(O)CO (configuration not stated) | 20000 mg/kg
25 | Nc1ccc(O)c([N+](=O)[O-])c1 | 1470 mg/kg
26 | c1ccncc1 | 891 mg/kg
27 | CC(O)C#N (configuration not stated) | 21 mg/kg
28 | CCOP(=S)(OCC)Oc1ccc(Cl)cc1Cl | 172 mg/kg
29 | CCOCn1c(-c2ccc(Cl)cc2)c(C#N)c(Br)c1C(F)(F)F | 560 mg/kg
30 | CC(=O)C1=C(C)[C@@H]2C[C@@]3(C1)[C@H](C)CC[C@H]3C2(C)C | 4500 mg/kg
31 | O=Cc1ccccn1 | 566 mg/kg
32 | CCCCC(CC)COP(Oc1ccccc1)Oc1ccccc1 (configuration not stated) | 3840 mg/kg
33 | CCC[N+](CCC)(CCC)CCC | 3300 mg/kg
34 | N#CCCCCCCC#N | 238 mg/kg
35 | CC(=O)CC(=O)Nc1ccccc1C | 1020 mg/kg
36 | CC1=CC(C)(C)CC(=O)C1 | 1500 mg/kg
37 | O=C(O)CCS | 63 mg/kg
38 | CCCCN(CCCC)C(=O)N(CCCC)CCCC | 16700 mg/kg
39 | O=C(O)c1cc2ccccc2cc1O | 809 mg/kg
40 | CC1(C)C(C=C(Cl)Cl)C1C(=O)OCc1cccc(Oc2ccccc2)c1 (configuration not stated) | 406 mg/kg
41 | CC(O)CNCC(C)O (configuration not stated) | 4760 mg/kg
42 | O=C(CS)OC(CO)CO | 172 mg/kg
43 | CCc1cccc(CC)c1N | 1800 mg/kg
44 | c1ccc(OCC2CO2)cc1 (configuration not stated) | 2500 mg/kg

Row | SMILES | LD50
45 | Cc1nc(N(C)C)nc(OC(=O)N(C)C)c1C | 100 mg/kg
46 | CCCOCCO | 3090 mg/kg
47 | O=[N+]([O-])c1ccc(O)cc1 | 170 mg/kg
48 | CN(C)CCCNCCCN | 1540 mg/kg
49 | O=C(O)c1ccc2c(c1)C(=O)OC2=O | 2030 mg/kg
50 | Oc1ccc(Cl)cc1Cc1cc(Cl)ccc1O | 1510 mg/kg
51 | CCNS(=O)(=O)C(F)(F)C(F)(F)C(F)(F)C(F)(F)C(F)(F)C(F)(F)C(F)(F)C(F)(F)F | 507 mg/kg
52 | CC[Si](Cl)(Cl)CC | 600 mg/kg
53 | CCOP(=S)(Oc1ccc([N+](=O)[O-])cc1)c1ccccc1 (configuration not stated) | 7 mg/kg
54 | CCCC(=O)Nc1ccc(OCC(O)CNC(C)C)c(C(C)=O)c1 (configuration not stated) | 3200 mg/kg
55 | CC(C)=CCC/C(C)=C/CO | 3600 mg/kg
56 | O=C1CCCN1 | 328 mg/kg
57 | CC(C)CCCCCCO | 2980 mg/kg
58 | CCCCNC(=O)OCC#CI | 1100 mg/kg
59 | CC(C)N(C(=O)SCC(Cl)=C(Cl)Cl)C(C)C | 200 mg/kg
60 | CC1(C)C(=O)N(Br)C(=O)N1Br | 250 mg/kg
61 | CCOC(=O)C(C)Oc1ccc(Oc2nc3ccc(Cl)cc3o2)cc1 (configuration not stated) | 2360 mg/kg
62 | N#C[N-2] | 158 mg/kg
63 | CCCCCCCCCC(=O)O | 3320 mg/kg
64 | CC(=O)CC(C)C | 2080 mg/kg
65 | c1ccc2[nH]c(-c3cscn3)nc2c1 | 2080 mg/kg
66 | CC(C)CO | 2460 mg/kg

Row | SMILES | LD50
67 | ClC(Cl)Br | 916 mg/kg
68 | CCCSP(=S)(OCC)Oc1ccc(SC)cc1 (configuration not stated) | 65 mg/kg
69 | CN(CCCCCC(=O)O)S(=O)(=O)c1ccccc1 (racemic) | 3040 mg/kg
70 | CC(C)c1ccc2ccc(C(C)C)cc2c1 | 4130 mg/kg
71 | CCCCCC | 25000 mg/kg
72 | CNc1ccccc1 | 716 mg/kg
73 | COP(=S)(OC)SCN1C(=O)c2ccccc2C1=O | 26 mg/kg
74 | N#C/N=C1\SCCN1Cc1ccc(Cl)nc1 | 285 mg/kg
75 | CSc1nnc(C(C)(C)C)c(=O)n1N | 322 mg/kg
76 | CC(=O)Oc1ccc(C(c2ccc(OC(C)=O)cc2)c2ccccn2)cc1 | 4300 mg/kg
77 | CNN | 32 mg/kg
78 | C=C(C)C(=O)OCCO | 5050 mg/kg
79 | CCCCOCCOCCO | 5080 mg/kg
80 | O=C(O)c1cccc(C(=O)O)c1 | 10400 mg/kg
81 | N#Cc1c(Cl)c(Cl)c(Cl)c(C#N)c1Cl | 242 mg/kg
82 | C=CCCCC=CCOC | 4900 mg/kg
83 | COP(=O)(OC)O/C(C)=C/C(=O)N(C)C | 9 mg/kg
84 | CCCCCCCCCCCCOS(=O)(=O)O | 977 mg/kg
85 | CC/C=C\C#N | 198 mg/kg
86 | CCOP(=S)(NC(C)C)Oc1ccccc1C(=O)OC(C)C (configuration not stated) | 21.1 mg/kg
87 | Oc1cc(Cl)c(Cl)cc1Cl | 820 mg/kg

Source: the CATMoS acute toxicity set (Mansouri et al. 2021)
